This is an account of results in PMC7294232, “Synthesis and biological evaluation of novel quinoline-piperidine scaffolds as antiplasmodium agents” (European Journal of Medicinal Chemistry, 2020).

Assay [1] concerns Chinese hamster ovarian (CHO) cells. The experiment in a line: in vitro cytotoxicity, MTT-assay. In kind it is cell-based. The settings on record: for IC50: Cricetulus griseus, CHO; for SI (selectivity index): IC50 CHO/IC50 NF54. The procedure: An antiplasmodium assay was performed on this set of 18 novel quinoline-piperidine analogues to establish their potential as antimalarial agents. […] All compounds were screened for in vitro antiplasmodium activity against a CQ-sensitive strain of P. falciparum (NF54). Subsequently, compounds showing promising antiplasmodium activity were also tested against a CQ-resistant strain of P. falciparum (K1) and analysed for in vitro cytotoxicity against a mammalian cell line, Chinese hamster ovarian (CHO) cells, using the 3-(4,5-dimethylthiazol-2-yl)-2,5-diphenyltetrazoliumbromide (MTT)-assay. Continuous in vitro cultures of asexual erythrocyte stages of P. falciparum were maintained using a modified method of Trager and Jensen, and quantitative assessment of antiplasmodium activity in vitro was determined via the parasite lactate dehydrogenase assay using a modified method described by Makler. The test samples were tested in triplicate on one occasion. The MTT-assay was used as a colorimetric assay for cellular growth and survival, and compares well with other available assays. The tetrazolium salt MTT was used to measure all growth and chemosensitivity. Again, samples were tested in triplicate on one occasion. Chloroquine was used as reference compound in both antiplasmodium screenings, while emetine was used as known antiprotozoal agent in the MTT-assay.
The same stock solutions prepared for antiplasmodium testing were used for cytotoxicity testing. Test compounds were stored at −20 °C until use. Dilutions were prepared on the day of the experiment. Emetine was used as the reference drug in all experiments. The initial concentration of emetine was 100 μg/ml, which was serially diluted in complete medium with 10-fold dilutions to give 6 concentrations, the lowest being 0.001 μg/ml. The same dilution technique was applied to all the test samples. The highest concentration of solvent to which the cells were exposed to had no measurable effect on the cell viability (data not shown). The 50% inhibitory concentration (IC50) values were obtained from full dose-response curves, using a non-linear dose-response curve fitting analysis via GraphPad Prism v.4 software.
A general note: Tetrazolium assays rely on reduction of a dye to a coloured formazan, in cell work by metabolically active cells.

In assay [2] the test system is CQ-sensitive strain of P. falciparum (NF54). The experiment in a line: in vitro antiplasmodium assay (parasite lactate dehydrogenase), CQ-sensitive strain. The conditions noted are these: for IC50: Plasmodium falciparum. The format is cell-based, Plasmodium falciparum.
In assay [3] the test system is CQ-resistant strain of P. falciparum (K1). The experiment in a line: in vitro antiplasmodium assay (parasite lactate dehydrogenase), CQ-resistant strain. In kind it is cell-based, Plasmodium falciparum. The conditions noted are these: for IC50: Plasmodium falciparum; for activity lowered by omitting the 7-chlorine atom: CQ-resistant strain, versus 7-chloro analogues.

Where [4] appears, read: cytotoxicity, CHO cells, MTT, mean ± SD.
Where [5] appears, read: CQ-sensitive P. falciparum NF54, mean ± SD, read-out: NF54 IC50.
Where [6] appears, read: CQ-resistant P. falciparum K1, mean ± SD, read-out: K1 IC50.

Molecules are shown by their SMILES. Read-outs that look alike come from different tables or passages of the source.

For orientation: IC50 means the concentration needed to halve the response being measured. With `C=CCN1C[C@@H](OCc2ccccc2)[C@@H](CNc2ccnc3cc(Cl)ccc23)C(C)(C)C1` (relative stereo) [Compound 16a, N-[(cis-1-Allyl-5-benzyloxy-3,3-dimethylpiperidin-4-yl)methyl]-7-chloroquinolin-4-amine], the IC50 in assay [1] (setting [4]) amounted to 122000 ± 41400 nM; in assay [2] (setting [5]), 12 ± 1 nM; in assay [3] (setting [6]) it was 26 ± 5.7 nM. In assay [1], the “SI (selectivity index)” value is recorded as 10,149.
For `C=CCN1C[C@@H](OCc2ccccc2)[C@@H](CNCc2ccnc3ccccc23)C(C)(C)C1` (relative stereo) [Compound 17a, N-[(cis-1-Allyl-5-benzyloxy-3,3-dimethylpiperidin-4-yl)methyl]-1-(quinolin-4-yl)methanamine], in that order: 139000 ± 14100 nM, 2370 ± 1050 nM, 3660 ± 430 nM and 59.
For the compound `C=CCN1C[C@@H](OCc2ccccc2)[C@@H](CNCc2ccc3ccccc3n2)C(C)(C)C1` (relative stereo) [Compound 17c, N-[(cis-1-Allyl-5-benzyloxy-3,3-dimethylpiperidin-4-yl)methyl]-1-(quinolin-2-yl)methanamine], the IC50 in assay [1] (setting [4]) was determined as 211000 ± 31400 nM; in assay [2] (setting [5]), 1570 ± 170 nM; in assay [3] (setting [6]) it was 2820 ± 140 nM. In addition, the “SI (selectivity index)” value in assay [1] is recorded as 134.
In the case of `C=CCN1C[C@@H](OCc2ccccc2)[C@@H](CNCc2cc3ccccc3nc2Cl)C(C)(C)C1` (relative stereo) [Compound 17f, N-[(cis-1-Allyl-5-benzyloxy-3,3-dimethylpiperidin-4-yl)methyl]-1-(2-chloroquinolin-3-yl)methanamine], the IC50 in assay [1] (setting [4]) was found to be 199000 ± 23300 nM; in assay [2] (setting [5]), 1280 ± 330 nM; in assay [3] (setting [6]) it was 1950 ± 78 nM. Further, the “SI (selectivity index)” value in assay [1] is reported as 156.
Take `C=CCN1C[C@@H](OC)[C@@H](CNCc2ccnc3ccccc23)C(C)(C)C1` (relative stereo) [Compound 17h, N-[(cis-1-Allyl-5-methoxy-3,3-dimethylpiperidin-4-yl)methyl]-1-(quinolin-4-yl)methanamine]: the IC50 in assay [2] (setting [5]) turned out to be 18000 ± 2440 nM.
Turning to `CCN(CC)CCCC(C)Nc1ccnc2cc(Cl)ccc12` (centres unmarked) [Chloroquine, reference compound], the IC50 is 11.3 nM in assay [2] (NF54, read-out: IC50 (NF54), footnote reference value, subset c); 9.5 nM in assay [2] (NF54, read-out: IC50 (NF54), footnote reference value, subset d); 20 nM in assay [2] (NF54, read-out: IC50 (NF54), footnote reference value, subset e); 11 ± 1 nM in assay [2] (NF54, read-out: NF54 IC50, reference value for compound subset c); 10 nM in assay [2] (NF54, read-out: NF54 IC50, reference value for compound subset d); 20 nM in assay [2] (NF54, read-out: NF54 IC50, reference value for compound subset e). Moreover, the IC50 in assay [3] (K1, read-out: IC50 (K1)) was 166 nM.
With `COc1ccc(CNCC2CC3(c4ccccc4)CCN2C3)cc1` (centres unmarked) [Compound 7, 2-[N-(4-methoxybenzyl)aminomethyl]-4-phenyl-1-azabicyclo[2.2.1]heptane], in assay [2] (setting [5]), the IC50 came to 1550 ± 130 nM. Further, the “antiplasmodium activity (in words)” value in assay [2] (in vitro, strain not given) is listed as “moderate antiplasmodium activity”.
Turning to `Clc1ccc2c(NCC3CC4(c5ccccc5)CCN3C4)ccnc2c1` (centres unmarked) [Compound 11a, 7-Chloro-N-[(4-phenyl-1-azabicyclo[2.2.1]heptan-2-yl)methyl]quinolin-4-amine], the IC50 was 26000 ± 2900 nM in assay [1] (setting [4]), 21 ± 5 nM in assay [2] (setting [5]) and 33 ± 6.2 nM in assay [3] (setting [6]). For the same compound, the “SI (selectivity index)” value in assay [1] is 1266.
On to `c1ccc(C23CCN(C2)C(CNc2ccnc4ccccc24)C3)cc1` (centres unmarked) [Compound 11b, N-[(4-Phenyl-1-azabicyclo[2.2.1]heptan-2-yl)methyl]quinolin-4-amine], for which the results for the IC50 in assay [1] (setting [4]), in assay [2] (setting [5]) and in assay [3] (setting [6]) were 11200 ± 2100 nM, 45 ± 7 nM and 69 ± 11.3 nM, respectively. The “SI (selectivity index)” value in assay [1] turned out to be 250. For the same compound, the “activity lowered by omitting the 7-chlorine atom” value in assay [3] was 2 to 3 times.
`c1ccc(C23CCN(C2)C(CNCc2ccnc4ccccc24)C3)cc1` (centres unmarked) [Compound 12a, N-[(4-Phenyl-1-azabicyclo[2.2.1]heptan-2-yl)methyl]-1-(quinolin-4-yl)methanamine]: in assay [2] (setting [5]), the IC50 amounted to 6770 ± 250 nM.
Take `c1ccc(C23CCN(C2)C(CNCc2cnc4ccccc4c2)C3)cc1` (centres unmarked) [Compound 12b, N-[(4-Phenyl-1-azabicyclo[2.2.1]heptan-2-yl)methyl]-1-(quinolin-3-yl)methanamine]: the half-inhibitory concentration (IC50) in assay [2] (setting [5]) amounted to 4070 ± 740 nM.
For `c1ccc(C23CCN(C2)C(CNCc2ccc4ccccc4n2)C3)cc1` (centres unmarked) [Compound 12c, N-[(4-Phenyl-1-azabicyclo[2.2.1]heptan-2-yl)methyl]-1-(quinolin-2-yl)methanamine], the IC50 in assay [2] (setting [5]) was determined as 1270 ± 40 nM.
In the case of `Oc1cccc2ccc(CNCC3CC4(c5ccccc5)CCN3C4)nc12` (centres unmarked) [Compound 12d, 2-{N-[(4-Phenyl-1-azabicyclo[2.2.1]heptan-2-yl)methyl]aminomethyl}quinolin-8-ol], the IC50 in assay [1] (setting [4]) was found to be 103000 ± 19700 nM; in assay [2] (setting [5]), 720 ± 30 nM; in assay [3] (setting [6]), 4640 ± 130 nM. In addition, the “SI (selectivity index)” value in assay [1] was 142.
Turning to `Clc1nc2ccccc2cc1CNCC1CC2(c3ccccc3)CCN1C2` (centres unmarked) [Compound 12e, N-[(4-Phenyl-1-azabicyclo[2.2.1]heptan-2-yl)methyl]-1-(2-chloroquinolin-3-yl)methanamine], in assay [2] (setting [5]), the IC50 was 3600 ± 310 nM.
As for `C=CCN1CCC(CNc2ccnc3cc(Cl)ccc23)C(C)(C)C1` (centres unmarked) [Compound 16b, N-[(1-Allyl-3,3-dimethylpiperidin-4-yl)methyl]-7-chloroquinolin-4-amine], the figures for the IC50 in assay [1] (setting [4]), in assay [2] (setting [5]) and in assay [3] (setting [6]) were 29900 ± 1200 nM, 15 ± 1.7 nM and 25 ± 8.9 nM, respectively. In addition, the “SI (selectivity index)” value in assay [1] was 1991.
Regarding `C=CCN1CCC(CNc2ccnc3ccccc23)C(C)(C)C1` (centres unmarked) [Compound 16c, N-[(1-Allyl-3,3-dimethylpiperidin-4-yl)methyl]quinolin-4-amine], the IC50 in assay [1] (setting [4]) was found to be 27000 ± 3200 nM; in assay [2] (setting [5]) it was 236 ± 32 nM; in assay [3] (setting [6]), 68.5 ± 7.8 nM. Also, the “SI (selectivity index)” value in assay [1] is 114. Moreover, the “activity lowered by omitting the 7-chlorine atom” value in assay [3] is 2 to 3 times.
As for `C=CCN1CCC(CNCc2ccnc3ccccc23)C(C)(C)C1` (centres unmarked) [Compound 17b, N-[(1-Allyl-3,3-dimethylpiperidin-4-yl)methyl]-1-(quinolin-4-yl)methanamine], the IC50 in assay [2] (setting [5]) came out at 4940 ± 1180 nM.
For the compound `C=CCN1CCC(CNCc2ccc3ccccc3n2)C(C)(C)C1` (centres unmarked) [Compound 17d, N-[(1-Allyl-3,3-dimethylpiperidin-4-yl)methyl]-1-(quinolin-2-yl)methanamine], the IC50 in assay [2] (setting [5]) is 3660 ± 820 nM.
Still for that read-out and setting: with `C=CCN1CCC(CNCc2ccc3cccc(O)c3n2)C(C)(C)C1` (centres unmarked) [Compound 17e, 2-{N-[(1-Allyl-3,3-dimethylpiperidin-4-yl)methyl]aminomethyl}quinolin-8-ol] the figure was 2890 ± 1060 nM; with `C=CCN1CCC(CNCc2cc3ccccc3nc2Cl)C(C)(C)C1` (centres unmarked) [Compound 17g, N-[(1-Allyl-3,3-dimethylpiperidin-4-yl)methyl]-1-(2-chloroquinolin-3-yl)methanamine], 7750 ± 1440 nM.
As to `CC[C@H]1CN2CCc3cc(OC)c(OC)cc3[C@@H]2C[C@@H]1C[C@H]1NCCc2cc(OC)c(OC)cc21` [Emetine, reference compound], the values for the IC50 in assay [1] (reference value for compound subset c), in assay [1] (reference value for compound subset d) and in assay [1] (reference value for compound subset e) were 40 ± 10 nM, 140 nM and 30 nM, respectively.
